Assay results reported in US4565805A, “Pharmaceutical preparation for the treatment of peptic ulcer” (priority 1984, dated 1986).
Read-outs that look alike come from different tables or passages of the source.

Tests used:
[1] = test system: patients suffering from duodenal peptic ulcer
Procedure: The preparation was tested in clinic on 40 patients suffering from duodenal peptic ulcer. The control groups consisted of 20 patients treated with cymethidin in the daily dose of 800 mg. Only male patients were subjected to the treatment, their age varied from 22 to 56 years. The duration of the disease was different: from newly detected ulcer to 28 years of the disease. The diagnosis of the peptic ulcer was made on the basis of generally accepted clinical tests with an obligatory use of the gastroduodenoscopy. The gastroduodenoscopy was carried out prior to administration of the preparation and 14, 21 and 28 days thereafter (the two latter endoscopy were carried out only in the use of non-scarring ulcers).
The preparation was administered intramuscularly in a dose of 10-15 μg/kg in a 0.9% aqueous solution of sodium chloride twice a day (in the moring at 7 a.m. and in the evening at 19 p.m.). The treatment course was 14-28 days, the course dose of the preparation was 30-60 mg. Apart from the preparation, the patients were given no additional pharmaceuticals, antacids were also excluded.

[2] = test system: experimental duodenal ulcers (cystamine) in rats; conditions: preparation 12 μg/kg twice a day, cymethidin 7 mg/kg a day
Procedure: 170 rats were used. […] The animals of the control group were injected with a physiological solution. The slaughter of the animals was effected in groups of 10 animals within different periods after the beginning of the experiment.

## CN/C(=N\CCSCc1nc[nH]c1C)NC#N [cymethidin]
[1]; by the end of the 2-nd week, cymethidin 800 mg daily
  patients with pains still noted: 35%
[1]; by the end of the 3-rd week, preparation 10-15 μg/kg i.m. twice a day, cymethidin 200 mg 4 times a day
  patients with healed ulcer: 65%
[2]; 24 hrs, control 3.1
  ulcer index: 1.6
[2]; 48 hrs, control 3.3
  ulcer index: 1.6
[2]; 72 hrs, control 3.2
  ulcer index: 1.5
[2]; 7 ds, control 1.8
  ulcer index: 0.8
[2]; 14 ds, control 1.2
  ulcer index: 0
[2]
  time of complete healing of ulcers: by the end of the second week
